Measurements: US20100286145A1, “ISOPHTHALAMIDE DERIVATIVES INHIBITING BETA-SECRETASE ACTIVITY” (CoMentis, Inc., priority 2007, published 2010)
Like-named read-outs stand apart in the source and are kept apart here.

Legend:
[1] = target: memapsin 2 (Homo sapiens, UniProt P56817); experiment: Inhibition of memapsin 2 beta-secretase activity (fluorogenic substrate FS-2); type: biochemical; details: memapsin 2, pH 4, 37° C., read-out: M2Ki
Summary of the method: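 Memapsin 2 pre-incubated 20 min with compound at pH 4, 37° C, then FS-2 substrate (MCA-SEVNLDAEFK-DNP, APP Swedish cleavage site) added. Rate of fluorescence increase compared with uninhibited controls, fitted to a tight-binding inhibition model.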

[2] = test system: Aβ production in Chinese hamster ovary cells that over-express human APP695 with the London and Swedish mutations; experiment: Cellular Aβ IC50 determination (Aβ40 sandwich ELISA); type: cell-based; details: Cricetulus griseus; cellular Aβ production; read-out: IC50
Summary of the method: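 CHO cells overexpressing human APP695 with London and Swedish mutations, seeded at 10% confluency, treated with compounds up to about 4 μM final (0.4% DMSO). Secreted Aβ40 measured by sandwich ELISA relative to control and fitted to a 4-parameter IC50 model.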

memapsin 2, sequence (P56817 46-501): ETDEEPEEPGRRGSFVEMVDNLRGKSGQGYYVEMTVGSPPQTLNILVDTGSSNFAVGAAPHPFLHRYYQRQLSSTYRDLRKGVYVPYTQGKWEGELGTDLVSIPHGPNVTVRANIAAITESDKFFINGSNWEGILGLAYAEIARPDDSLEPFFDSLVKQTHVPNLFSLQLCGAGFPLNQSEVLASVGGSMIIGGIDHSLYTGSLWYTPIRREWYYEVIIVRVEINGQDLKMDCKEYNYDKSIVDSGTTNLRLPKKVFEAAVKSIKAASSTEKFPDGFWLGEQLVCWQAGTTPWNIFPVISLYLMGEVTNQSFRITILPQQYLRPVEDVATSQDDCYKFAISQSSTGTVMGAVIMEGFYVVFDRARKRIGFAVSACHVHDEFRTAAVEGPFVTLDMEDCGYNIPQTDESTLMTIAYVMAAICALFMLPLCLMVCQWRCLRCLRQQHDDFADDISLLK

Ki ([1]; fluorogenic substrate FS-2) [nM]	IC50 [2] [nM]	Ki ([1]; 20 minutes pre-incubation) [nM]	Compound
< 300	< 1000	–	COc1cccc(CNC[C@@H](O)[C@H](Cc2ccccc2)NC(=O)c2cc(C(=O)N(C)Cc3nc(C)cs3)cc(-n3ccnc3)c2)c1 [Compound 262, N1-((2S,3R)-3-hydroxy-4-(3-methoxybenzylamino)-1-phenylbutan-2-yl)-5-(1H-imidazol-1-yl)-N3-methyl-N3-((4-methylthiazol-2-yl)methyl)isophthalamide]
< 300	< 1000	–	Cc1csc(CN(C)C(=O)c2cccc(C(=O)N[C@@H](Cc3ccccc3)[C@H](O)CNCc3cncc(Cl)c3)c2)n1 [Compound 216, N1-((2S,3R)-4-((5-chloropyridin-3-yl)methylamino)-3-hydroxy-1-phenylbutan-2-yl)-N3-methyl-N3-((4-methylthiazol-2-yl)methyl)isophthalamide]
–	< 1000	< 300	Cc1csc(CN(C)C(=O)c2cc(C(=O)N[C@@H](Cc3ccccc3)[C@H](O)CNCc3cc(OS(C)(=O)=O)cc(C(C)C)c3)cc(N(C)C)c2)n1 [Compound 178, 3-(((2R,3S)-3-(3-(dimethylamino)-5-(methyl((4-methylthiazol-2-yl)methyl)carbamoyl)benzamido)-2-hydroxy-4-phenylbutylamino)methyl)-5-isopropylphenyl methanesulfonate]
–	< 1000	< 300	Cc1csc(CN(C)C(=O)c2cccc(C(=O)N[C@@H](Cc3ccccc3)[C@H](O)CNCc3cc(NC(=O)OCc4ccccc4)cc(C(C)C)c3)c2)n1 [Compound 74, benzyl 3-(((2R,3S)-2-hydroxy-3-(3-(methyl((4-methylthiazol-2-yl)methyl)carbamoyl)benzamido)-4-phenylbutylamino)methyl)-5-isopropylphenylcarbamate]
< 300	< 1000	–	Cc1cc(C(=O)N[C@@H](Cc2ccccc2)[C@H](O)CNCc2cccc(C(F)(F)F)c2)cc(C(=O)N(C)Cc2nc(C)cs2)c1 [Compound 232, N1-((2S,3R)-3-hydroxy-1-phenyl-4-(3-(trifluoromethyl)benzylamino)butan-2-yl)-N3,5-dimethyl-N3-((4-methylthiazol-2-yl)methyl)isophthalamide]
–	< 1000	< 300	Cc1csc(CN(C)C(=O)c2cccc(C(=O)N[C@@H](Cc3ccccc3)[C@H](O)CNCc3cc(C(C)C)cc(N(C)S(C)(=O)=O)c3)c2)n1 [Compound 146, N1-((2S,3R)-3-hydroxy-4-(3-isopropyl-5-(N-methylmethylsulfonamido)benzylamino)-1-phenylbutan-2-yl)-N3-methyl-N3-((4-methylthiazol-2-yl)methyl)isophthalamide]
–	< 1000	< 300	C[C@@H](NC(=O)c1cc(C(=O)N[C@@H](Cc2ccccc2)[C@H](O)CNCc2cccc(C(C)(C)C)c2)cc(N(C)S(C)(=O)=O)c1)c1ccccc1 [Compound 58, N1-((2S,3R)-4-(3-tert-butylbenzylamino)-3-hydroxy-1-phenylbutan-2-yl)-5-(N-methylmethylsulfonamido)-N3-((R)-1-phenylethyl)isophthalamide]
–	< 1000	< 300	Cc1csc(CN(C)C(=O)c2cccc(C(=O)N[C@@H](Cc3ccccc3)[C@H](O)CNCc3cc(C(=O)O)cc(N(C)S(C)(=O)=O)c3)c2)n1 [Compound 139, 3-(((2R,3S)-2-hydroxy-3-(3-(methyl((4-methylthiazol-2-yl)methyl)carbamoyl)benzamido)-4-phenylbutylamino)methyl)-5-(N-methylmethylsulfonamido)benzoic acid]
–	< 1000	< 300	Cc1csc(CN(C)C(=O)c2cccc(C(=O)N[C@@H](Cc3ccccc3)[C@H](O)CNCc3cccc(C(C)C)n3)c2)n1 [Compound 10, N1-((2S,3R)-3-hydroxy-4-((6-isopropylpyridin-2-yl)methylamino)-1-phenylbutan-2-yl)-N3-methyl-N3-((4-methylthiazol-2-yl)methyl)isophthalamide]
–	< 1000	< 300	C[C@@H](NC(=O)c1cc(C(=O)N[C@@H](Cc2ccccc2)[C@H](O)CNCc2cccc(C(F)F)c2)cc(N(C)S(C)(=O)=O)c1)c1ccccc1 [Compound 142, N1-((2S,3R)-4-(3-(difluoromethyl)benzylamino)-3-hydroxy-1-phenylbutan-2-yl)-5-(N-methylmethylsulfonamido)-N3-((R)-1-phenylethyl)isophthalamide]
–	< 1000	< 300	COc1cccc(CNC[C@@H](O)[C@H](Cc2ccccc2)NC(=O)c2cc(OC)cc(C(=O)N(Cc3nc(C)cs3)C(C)C)c2)c1 [Compound 25, N1-((2S,3R)-3-hydroxy-4-(3-methoxybenzylamino)-1-phenylbutan-2-yl)-N3-isopropyl-5-methoxy-N3-((4-methylthiazol-2-yl)methyl)isophthalamide]
–	< 1000	< 300	COc1cccc(CNC[C@@H](O)[C@H](Cc2ccccc2)NC(=O)c2cc(OS(C)(=O)=O)cc(C(=O)N(C)Cc3nc(C)cs3)c2)c1 [Compound 67, 3-((2S,3R)-3-hydroxy-4-(3-methoxybenzylamino)-1-phenylbutan-2-ylcarbamoyl)-5-(methyl((4-methylthiazol-2-yl)methyl)carbamoyl)phenyl methanesulfonate]
–	> 5000	301 to 500	Cc1csc(CN(C)C(=O)c2cccc(C(=O)N[C@@H](Cc3ccccc3)[C@H](O)CNCc3cc(C(C)C)cc(N(C)C(=O)OCc4ccccc4)c3)c2)n1 [Compound 130, benzyl 3-(((2R,3S)-2-hydroxy-3-(3-(methyl((4-methylthiazol-2-yl)methyl)carbamoyl)benzamido)-4-phenylbutylamino)methyl)-5-isopropylphenyl(methyl)carbamate]
< 300	> 5000	–	Cc1csc(CN(C)C(=O)c2cc(C(=O)N[C@@H](Cc3ccccc3)[C@H](O)CNCc3cncc(C(C)C)c3)cc(N3CCCCC3)c2)n1 [Compound 231, N1-((2S,3R)-3-hydroxy-4-((5-isopropylpyridin-3-yl)methylamino)-1-phenylbutan-2-yl)-N3-methyl-N3-((4-methylthiazol-2-yl)methyl)-5-(piperidin-1-yl)isophthalamide]
–	< 1000	< 300	COc1cccc(CNC[C@@H](O)[C@H](Cc2ccccc2)NC(=O)c2cc(NO)cc(C(=O)N(C)Cc3nc(C)cs3)c2)c1 [Compound 117, N1-((2S,3R)-3-hydroxy-4-(3-methoxybenzylamino)-1-phenylbutan-2-yl)-5-(hydroxyamino)-N3-methyl-N3-((4-methylthiazol-2-yl)methyl)isophthalamide]
–	< 1000	< 300	Cc1csc(CN(C)C(=O)c2cc(C(=O)N[C@@H](Cc3ccccc3)[C@H](O)CNCc3cc(C(C)C)nc(N)n3)cc(-c3ncco3)c2)n1 [Compound 177, N1-((2S,3R)-4-((2-amino-6-isopropylpyrimidin-4-yl)methylamino)-3-hydroxy-1-phenylbutan-2-yl)-N3-methyl-N3-((4-methylthiazol-2-yl)methyl)-5-(oxazol-2-yl)isophthalamide]
–	< 1000	< 300	COCc1cc(C(=O)N[C@@H](Cc2ccccc2)[C@H](O)CNCc2cccc(OC)c2)cc(C(=O)N(C)Cc2nc(C)cs2)c1 [Compound 122, N1-((2S,3R)-3-hydroxy-4-(3-methoxybenzylamino)-1-phenylbutan-2-yl)-5-(methoxymethyl)-N3-methyl-N3-((4-methylthiazol-2-yl)methyl)isophthalamide]
–	< 1000	< 300	Cc1csc(CN(C)C(=O)c2cccc(C(=O)N[C@@H](Cc3ccccc3)[C@H](O)CNCc3cccc(C#N)c3)c2)n1 [Compound 137, N1-((2S,3R)-4-(3-cyanobenzylamino)-3-hydroxy-1-phenylbutan-2-yl)-N3-methyl-N3-((4-methylthiazol-2-yl)methyl)isophthalamide]
< 300	< 1000	–	Cc1csc(CN(C)C(=O)c2cc(C(=O)N[C@@H](Cc3ccccc3)[C@H](O)CNCc3cncc(C(C)(C)F)c3)cc(C(C)C)c2)n1 [Compound 277, N1-((2S,3R)-4-((5-(2-fluoropropan-2-yl)pyridin-3-yl)methylamino)-3-hydroxy-1-phenylbutan-2-yl)-5-isopropyl-N3-methyl-N3-((4-methylthiazol-2-yl)methyl)isophthalamide]
< 300	< 1000	–	CC(=O)c1cc(C(=O)N[C@@H](Cc2ccccc2)[C@H](O)CNCc2cncc(C(C)C)c2)cc(C(=O)N(C)Cc2nc(C)cs2)c1 [Compound 237, 5-acetyl-N1-((2S,3R)-3-hydroxy-4-((5-isopropylpyridin-3-yl)methylamino)-1-phenylbutan-2-yl)-N3-methyl-N3-((4-methylthiazol-2-yl)methyl)isophthalamide]
–	< 1000	< 300	Cc1csc(CN(C)C(=O)c2cccc(C(=O)N[C@@H](Cc3ccccc3)[C@H](O)CNCc3cccc(N(C)C)c3)c2)n1 [Compound 129, N1-((2S,3R)-4-(3-(dimethylamino)benzylamino)-3-hydroxy-1-phenylbutan-2-yl)-N3-methyl-N3-((4-methylthiazol-2-yl)methyl)isophthalamide]
< 300	< 1000	–	CC(=O)c1cc(C(=O)N[C@@H](Cc2ccccc2)[C@H](O)CNCc2cccc(C(F)(F)F)c2)cc(C(=O)N(C)Cc2nc(C)cs2)c1 [Compound 244, 5-acetyl-N1-((2S,3R)-3-hydroxy-1-phenyl-4-(3-(trifluoromethyl)benzylamino)butan-2-yl)-N3-methyl-N3-((4-methylthiazol-2-yl)methyl)isophthalamide]
